According to patent US10196381B2, “Benzimidazole-2-piperazine heterocyclic compound, pharmaceutical composition containing the same, preparation method and use thereof” (Shanghai Huilun Life Science & Technology Co., Ltd., priority 2013, dated 2019):

Biological target: PARP-1 enzyme (Homo sapiens (Human), UniProt P09874)
Test: PARP enzyme activity assay (HT Universal Chemiluminescent PARP Assay Kit, histone-coated wells)
Format: biochemical
Details: for inhibition at 0.03 µM: read-out: Inhibition (%) at 30 nM; for inhibition at 0.1 µM: read-out: Inhibition (%) at 100 nM
Method: PARP is an enzyme responsible for post-translational modification, which may be activated by means of DNA damage. The process catalyzed by PARP in vivo is mainly NAD-dependent poly(ADP-ribosyl)ation, in which the substrates are mainly some nuclear proteins including PARP, one example of which is histone. In the present invention, the PARP activity is assayed by determining the poly(ADP-ribosyl)ation degree of histone coated in a 96-well plate in the presence of NAD, and the PARP activity under the action of a PARP inhibitor is correspondingly assayed, thereby evaluating the degree of inhibition of the compounds on PARP activity. Poly(ADP-ribosyl)ation of nuclear proteins is a post-translational modification occurred in response to DNA damage. PARP is the abbreviation of poly(ADP-ribose)polymerase, which catalyzes the attachment of poly(ADP-ribose) to an adjacent nuclear protein in the presence of NAD, thus eliciting a mechanism of DNA repair through base excision repair pathway. The level of biotin-labeled ADP-ribose binding to histone can be detected by using the HT Universal Chemiluminescent PARP Assay Kit commercially available from Trevigen Corp. […] HT Universal Chemiluminescent PARP Assay Kit with Histone-coated Strip Wells, commercially available from Trevigen (US), Catalog #: 4676-096-K. […] 4. The PARP enzyme was carefully diluted with the 1×PARP buffer just before use, the diluted enzyme solution should be used as quickly as possible and the remaining solution should be discarded. […] 2. […] 1. […] 2. […] 4. […] After washing, equal volume of the PeroxyGlow A and B solutions were uniformly mixed, 100 μl of the solution was added to each well, and the chemiluminescent signals were recorded on a plate reader immediately. The readout of each well is converted into the percent inhibition. […] Note: the readout of the positive control well is designated as 100% enzyme activity; the readout of the negative control well is designated as 0% enzyme activity; and the activity X refers to the readout from respective concentration of each sample.

PARP-1 enzyme, sequence (P09874 whole entry): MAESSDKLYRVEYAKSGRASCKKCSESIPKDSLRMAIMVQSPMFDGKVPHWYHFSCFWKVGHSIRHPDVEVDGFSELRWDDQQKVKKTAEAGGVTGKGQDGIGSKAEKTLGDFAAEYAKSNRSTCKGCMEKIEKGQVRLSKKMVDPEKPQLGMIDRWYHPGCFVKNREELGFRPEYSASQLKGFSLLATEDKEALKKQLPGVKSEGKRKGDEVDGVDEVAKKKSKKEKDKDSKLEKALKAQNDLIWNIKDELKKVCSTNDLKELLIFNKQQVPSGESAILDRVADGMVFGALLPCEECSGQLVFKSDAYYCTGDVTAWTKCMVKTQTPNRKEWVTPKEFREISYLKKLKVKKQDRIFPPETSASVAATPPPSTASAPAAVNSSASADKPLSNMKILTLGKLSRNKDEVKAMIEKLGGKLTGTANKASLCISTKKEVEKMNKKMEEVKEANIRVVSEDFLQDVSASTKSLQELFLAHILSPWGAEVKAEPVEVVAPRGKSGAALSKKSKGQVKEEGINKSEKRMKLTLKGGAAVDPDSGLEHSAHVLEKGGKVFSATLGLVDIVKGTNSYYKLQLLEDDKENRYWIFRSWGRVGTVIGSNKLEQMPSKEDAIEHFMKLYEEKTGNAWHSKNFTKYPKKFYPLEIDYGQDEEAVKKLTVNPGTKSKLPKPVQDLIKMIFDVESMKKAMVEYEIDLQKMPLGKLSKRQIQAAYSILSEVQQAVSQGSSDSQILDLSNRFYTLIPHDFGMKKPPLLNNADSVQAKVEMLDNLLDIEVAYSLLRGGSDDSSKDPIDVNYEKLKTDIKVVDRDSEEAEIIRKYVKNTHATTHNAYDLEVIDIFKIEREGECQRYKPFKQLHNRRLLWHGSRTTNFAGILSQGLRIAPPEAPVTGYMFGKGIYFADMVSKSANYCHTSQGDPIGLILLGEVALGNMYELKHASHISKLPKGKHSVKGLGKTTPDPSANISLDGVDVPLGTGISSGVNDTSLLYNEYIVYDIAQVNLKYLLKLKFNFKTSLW

Compound | inhibition at 0.03 µM | inhibition at 0.1 µM
NC(=O)c1cc(F)cc2[nH]c(N3CCN(c4ccc(C(F)(F)F)nn4)CC3)nc12 [Compound (31), 6-fluoro-2-(4-(6-trifluoromethylpyridazin-3-yl)piperazin-1-yl)-1H-benzimidazole-4-carboxamide] | 80% | 95%
NC(=O)c1cc(F)cc2[nH]c(N3CCN(c4ccc(C(F)(F)F)nc4)CC3)nc12 [Compound (32), 6-fluoro-2-(4-(6-trifluoromethylpyridine-3-yl)piperazin-1-yl)-1H-benzimidazole-4-carboxamide] | 66% | 84%
NC(=O)c1cc(F)cc2[nH]c(N3CCN(c4cnc(C(F)(F)F)nc4)CC3)nc12 [Compound (33), 6-fluoro-2-(4-(2-trifluoromethylpyrimidin-5-yl)piperazin-1-yl)-1H-benzimidazole-4-carboxamide] | 88% | 98%
NC(=O)c1cc(F)cc2[nH]c(N3CCN(c4ncc(C(F)(F)F)cn4)CC3)nc12 [Compound (34), 6-fluoro-2-(4-(5-trifluoromethylpyrimidin-2-yl)piperazin-1-yl)-1H-benzimidazole-4-carboxamide] | 36% | 60%
NC(=O)c1cc(F)cc2[nH]c(N3CCN(c4cnc(C(F)(F)F)cn4)CC3)nc12 [Compound (35), 6-fluoro-2-(4-(5-trifluoromethylpyrazin-2-yl)piperazin-1-yl)-1H-benzimidazole-4-carboxamide] | 76% | 91%
CN(C)C(=O)c1cnc(N2CCN(c3nc4c(C(N)=O)cc(F)cc4[nH]3)CC2)cn1 [Compound (36), 2-(4-(5-dimethylcarbamoylpyrazin-2-yl)piperazin-1-yl)-6-fluoro-1H-benzimidazole-4-carboxamide] | 83% | 92%
N#Cc1cnc(N2CCN(c3nc4c(C(N)=O)cc(F)cc4[nH]3)CC2)cn1 [Compound (37), 2-(4-(5-cyanopyrazin-2-yl)piperazin-1-yl)-6-fluoro-1H-benzimidazole-4-carboxamide] | 87% | 98%
N#Cc1ncc(N2CCN(c3nc4c(C(N)=O)cc(F)cc4[nH]3)CC2)cn1 [Compound (38), 2-(4-(2-cyanopyrimidin-5-yl)piperazin-1-yl)-6-fluoro-1H-benzimidazole-4-carboxamide] | 84% | 95%
CNC(=O)c1ncc(N2CCN(c3nc4c(C(N)=O)cc(F)cc4[nH]3)CC2)cn1 [Compound (39)] | 78% | 92%
CCNC(=O)c1ncc(N2CCN(c3nc4c(C(N)=O)cc(F)cc4[nH]3)CC2)cn1 [Compound (40), 2-(4-(2-ethylcarbamoylpyrimidin-5-yl)piperazin-1-yl)-6-fluoro-1H-benzimidazole-4-carboxamide] | 77% | 93%
CN(C)C(=O)c1ncc(N2CCN(c3nc4c(C(N)=O)cc(F)cc4[nH]3)CC2)cn1 [Compound (41), 2-(4-(2-dimethylcarbamoylpyrimidin-5-yl)piperazin-1-yl)-6-fluoro-1H-benzimidazole-4-carboxamide] | 75% | 92%
